Reference: patent US20250151723A1, “FUNGICIDAL COMBINATION, COMPOSITION, AND USE THEREOF” (UPL MAURITIUS LIMITED, priority 2023, published 2025)
Like-named read-outs stand apart in the source and are kept apart here.

Columns and labels:
[1] = test system: Alternaria solani in tomato (early blight disease); assay: Greenhouse efficacy on tomato early blight, lesion area at 4 dpi (Examples 1-3); type: in vivo
[2] = test system: Soybean Target Spot (Corynespora cassicola); assay: Greenhouse trial on potted soybean plants, target spot (Example 8); type: in vivo
Botrytis = assay: Greenhouse trial on potted plants, Botrytis in pepper (Example 7)
Procedure: (§1) Following trials were conducted on crops (potted plants) infected with the pathogen/disease in a greenhouse trial.

Target Spot = assay: Greenhouse trial on potted plants, target spot in soybean (Example 7)
Procedure: as §1

cucumber downy mildew [3] = assay: Greenhouse efficacy on cucumber downy mildew (Example 4); type: in vivo
[4] = test system: tomato late blight disease; type: in vivo
[5] = test system: tomato early blight disease; assay: Greenhouse efficacy on tomato early blight disease (Example 6); type: in vivo
cucumber downy mildew [6] = assay: Greenhouse efficacy on cucumber downy mildew (Example 9); type: in vivo
[7] = test system: tomato early blight disease; assay: Greenhouse trial on potted tomato plants, early blight (Example 10); type: in vivo
Early Blight = settings: Tomato
Procedure: as §1

[8] = 17.5 g/L, 700 g Cu/HA (standard)
[9] = 0.75 g/L, 30 g Cu/HA (standard)

Molecule `O=C(O)c1ccccc1O` [Salicylic acid] has an Observed efficacy % ([1]; Table 1, 20 g/HA of SA) of 13.3%, an Observed efficacy % ([1]; Table 2, 40 mg/L, 2.5 g SA/HA) of 23.4% and an Observed efficacy % ([1]; Table 2, 80 mg/L, 5 g SA/HA) of 22.1%. The Observed efficacy % ([1]; Table 2, 320 mg/L, 10 g/HA) was −2.3% and the Observed efficacy % ([1]; Table 2, 320 mg/L, 20 g/HA) was −2.7%.
With `O=C1C2CC=CCC2C(=O)N1SC(Cl)(Cl)Cl` (stereo not shown) [captan] the “Efficacy (%)” value ([2]; 0.02 g/L, 1.56 g Captan/ha) was 0.4%, the “Efficacy (%)” value ([2]; 6 g/L, 467 g Captan/ha (full recommended dose)) was 100% and the “Efficacy (%)” value (Botrytis; 0.002 g/l, 0.16 gai/ha) was 20.4%.
`O=C1c2ccccc2C(=O)N1SC(Cl)(Cl)Cl` [folpet] was tested, and the “Efficacy (%)” value ([2]; 0.015 g/L, 0.63 g Folpet/ha) was 34.7%, the “Efficacy (%)” value ([2]; 5 g/L, 208.5 g Folpet/ha (full recommended dose)) was 98.4% and the “Efficacy (%)” value (Botrytis; 0.002 ml/l, 0.1 gai/ha) was 9.3%. The “Efficacy (%)” value (Target Spot; 0.015 g/l, 0.625 gai/ha) was 34.7%.
In the case of `O=C([O-])c1ccccc1O.[K+]` [potassium salicylate], the Observed efficacy % ([1]; Table 3, 410 mg/L) was 5.8%, the Observed efficacy (cucumber downy mildew [3]; 71 mg/L, 0.89 g SA/HA) was 21.9 and the Observed efficacy % ([4]; 137 mg/L, 1.7 g SA/HA) was 15.2%. It also gave an Observed efficacy % ([5]; 310 mg/L, 3.875 g SA/HA) of 2.2%, an Observed efficacy % ([5]; 410 mg/L, 5.125 g SA/HA) of 13.1% and an Observed efficacy % ([5]; 620 mg/L, 7.75 g/HA) of 11.4%. The “Efficacy (%)” value ([2]; 25 mg/L, 0.31 g KSA/ha) was 19.5%, the “Efficacy (%)” value ([2]; 100 mg/L, 1.25 g KSA/ha) was 12.4% and the “Efficacy (%)” value ([2]; 410 mg/L, 5.13 g KSA/ha) was 1.8%. For the same molecule, the “Efficacy (%)” value ([2]; 820 mg/L, 10.27 g KSA/ha) was −6.1%, the “Efficacy (%)” value ([2]; 1.64 g/L, 20.54 g KSA/ha) was −11.4% and the Observed efficacy % (cucumber downy mildew [6]; 103 mg/L, 1.29 g KSA/HA) was 14.0%. It also gave an Observed efficacy % (cucumber downy mildew [6]; 137 mg/L, 1.71 g KSA/HA) of −1.1%, an Observed efficacy % (cucumber downy mildew [6]; 207 mg/L, 2.59 g KSA/HA) of −2.7% and an Observed efficacy % ([7]; 0.1 g/L, 1.25 gai/ha) of 0.4%. It also gave an Observed efficacy % ([7]; 0.41 g/L, 5.13 gai/ha) of 2.3%, an Observed efficacy % ([7]; 0.82 g/L, 10.25 gai/ha) of 37.4% and an Observed efficacy % ([7]; 1.64 g/L, 20.5 gai/ha) of 34.4%. The “Efficacy (%)” value (Early Blight; 0.41 g/l, 5.13 gai/ha) was −3%, the “Efficacy (%)” value (Botrytis; 0.025 g/l, 0.31 gai/ha (mancozeb and captan sections)) was −5.2% and the “Efficacy (%)” value (Botrytis; 0.1 g/l, 1.25 gai/ha (mancozeb and captan sections)) was −3.9%. The “Efficacy (%)” value (Botrytis; folpet section, 0.1 g/l, 1.25 gai/ha) was 12%, the “Efficacy (%)” value (Target Spot; captan and folpet sections, 0.025 g/l, 0.31 gai/ha) was 19.5% and the “Efficacy (%)” value (Target Spot; captan and folpet sections, 0.1 g/l, 1.25 gai/ha) was 12.4%. The “Efficacy (%)” value (Target Spot; captan and folpet sections, 0.41 g/l, 5.13 gai/ha) was 1.8%, the “Efficacy (%)” value (Target Spot; captan and folpet sections, 0.82 g/l, 10.25 gai/ha) was −6.1% and the “Efficacy (%)” value (Target Spot; captan and folpet sections, 1.64 g/l, 20.5 gai/ha) was −11.4%. For the same molecule, the “Efficacy (%)” value (Target Spot; mancozeb section, 0.025 g/l, 0.31 gai/ha) was 16.8%, the “Efficacy (%)” value (Target Spot; mancozeb section, 0.1 g/l, 1.25 gai/ha) was 12.6% and the “Efficacy (%)” value (Target Spot; mancozeb section, 0.41 g/l, 5.13 gai/ha) was 27.6%. For the same molecule, the “Efficacy (%)” value (Target Spot; mancozeb section, 0.82 g/l, 10.25 gai/ha) was −3.8% and the “Efficacy (%)” value (Target Spot; mancozeb section, 1.64 g/l, 20.5 gai/ha) was 6.3%.
`O=S(=O)([O-])[O-].[Cu+2].[Cu+2].[Cu+2].[Cu+2].[OH-].[OH-].[OH-].[OH-].[OH-].[OH-]` [tribasic copper sulphate] gave an Observed efficacy % ([1]; Table 1, 150 g/HA of Cu) of 31%, an Observed efficacy % ([1]; Table 1, 700 g/HA of Cu (standard treatment)) of 88% and an Observed efficacy % ([1]; Table 2, 0.75 g/L, 150 g Cu/HA) of 40.2%. It also gave an Observed efficacy % ([1]; Table 2, 17.5 g/L, 700 g Cu/HA (standard)) of 86.9%, an Observed efficacy % ([1]; Table 3, 0.75 g/L) of 23% and an Observed efficacy % ([1]; Table 3, 17.5 g/L (standard)) of 75%. For the same molecule, the Observed efficacy (cucumber downy mildew [3]; 0.13 g/L, 5.2 g Cu/HA) was −7.6, the Observed efficacy (cucumber downy mildew [3]; [8]) was 94.9 and the Observed efficacy % ([4]; 0.25 g/L, 10 g Cu/HA) was 18.5%. For the same molecule, the Observed efficacy % [4, 9] was 62.9%, the Observed efficacy % ([5]; 0.75 g/L, 30 g Cu/HA) was 18.5% and the Observed efficacy % [5, 8] was 57.6%. It also gave an Observed efficacy % (cucumber downy mildew [6]; 0.25 g/L, 10 g Cu/HA) of 50.7% and an Observed efficacy % (cucumber downy mildew [6]; [9]) of 96.7%.
mancozeb was tested, and the “Efficacy (%)” value (Early Blight; 0.0187 g/l, 1.4 gai/ha) was −12.6%, the “Efficacy (%)” value (Botrytis; 0.0168 g/l, 1.26 gai/ha) was 26.4% and the “Efficacy (%)” value (Target Spot; 0.0075 g/l, 0.56 gai/ha) was −6.6%.
